From BindingDB's records for doi:10.1080/14756360500112326 (National Institute of Pharmaceutical Education and Research, 2005) come the findings set out here.

The structures appear in SMILES notation.

In this assay the target is Xanthine dehydrogenase/oxidase (Homo sapiens, UniProt P47989). Description: Xanthine Oxidase Inhibition Assay. Here is the method: Inhibition assay of the xanthine oxidase reaction by various purine based inhibitors was measured in terms of the decrease in uric acid formation at […].
Sequence of Xanthine dehydrogenase/oxidase (P47989 whole entry): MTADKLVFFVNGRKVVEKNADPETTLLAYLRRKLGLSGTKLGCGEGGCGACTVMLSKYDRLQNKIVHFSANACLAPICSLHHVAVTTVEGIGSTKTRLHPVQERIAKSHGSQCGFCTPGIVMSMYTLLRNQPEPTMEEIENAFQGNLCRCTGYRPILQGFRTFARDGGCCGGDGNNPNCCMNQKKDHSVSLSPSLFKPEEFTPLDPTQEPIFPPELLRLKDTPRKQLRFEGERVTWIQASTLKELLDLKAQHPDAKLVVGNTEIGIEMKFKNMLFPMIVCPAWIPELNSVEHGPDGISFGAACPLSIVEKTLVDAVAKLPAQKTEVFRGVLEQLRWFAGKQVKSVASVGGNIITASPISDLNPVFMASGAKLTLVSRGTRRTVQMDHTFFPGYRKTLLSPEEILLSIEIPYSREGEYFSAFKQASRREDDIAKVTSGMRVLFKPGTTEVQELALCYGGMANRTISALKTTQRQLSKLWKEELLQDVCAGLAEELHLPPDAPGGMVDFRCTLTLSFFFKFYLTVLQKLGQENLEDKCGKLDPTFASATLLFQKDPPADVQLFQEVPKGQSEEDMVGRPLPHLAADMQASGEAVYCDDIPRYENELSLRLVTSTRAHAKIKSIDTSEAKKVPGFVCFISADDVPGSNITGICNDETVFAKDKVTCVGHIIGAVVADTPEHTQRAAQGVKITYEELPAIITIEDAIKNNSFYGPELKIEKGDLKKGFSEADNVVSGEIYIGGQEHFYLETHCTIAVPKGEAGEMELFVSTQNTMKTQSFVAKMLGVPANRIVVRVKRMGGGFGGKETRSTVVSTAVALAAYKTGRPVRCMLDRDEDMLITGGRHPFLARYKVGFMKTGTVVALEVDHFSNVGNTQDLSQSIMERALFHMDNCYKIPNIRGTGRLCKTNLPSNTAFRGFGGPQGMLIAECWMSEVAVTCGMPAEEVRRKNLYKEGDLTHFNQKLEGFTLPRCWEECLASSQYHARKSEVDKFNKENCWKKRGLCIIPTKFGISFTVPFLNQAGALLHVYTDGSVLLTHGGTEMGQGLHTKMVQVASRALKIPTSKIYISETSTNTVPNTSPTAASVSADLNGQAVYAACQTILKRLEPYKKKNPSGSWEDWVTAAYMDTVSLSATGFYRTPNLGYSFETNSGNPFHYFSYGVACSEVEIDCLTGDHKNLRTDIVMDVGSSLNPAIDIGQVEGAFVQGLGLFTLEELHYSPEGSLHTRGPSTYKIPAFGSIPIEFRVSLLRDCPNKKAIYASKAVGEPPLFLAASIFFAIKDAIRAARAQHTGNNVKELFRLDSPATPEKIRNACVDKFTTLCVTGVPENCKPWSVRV
By IC50 is commonly meant the concentration at which inhibition is half-maximal. With `Nc1ncnc2nc[nH]c12`, half-maximal inhibition (IC50) required 75.6 µM. Regarding `O=C(Nc1ncnc2nc[nH]c12)c1ccccc1` [6-(N-benzoylamino)purine, 2], inhibition was half-maximal at 0.45 µM (IC50). Then `O=c1[nH]c(=O)c2[nH]c(Br)nc2[nH]1` [8-Bromoxanthine, 3], with 400 µM.
